Data taken from US20110124607A1, “COMPOSITION FOR REGULATION CELLULAR SENESCENCE COMPRISING LYSOPHOSPHATIDIC ACID AND INHIBITOR OF ADENYLYL CYCLASE AS ACTIVE INGREDIENTS” (priority 2008, published 2011).
Blank lines part the entries; values can stand above or below the molecule they belong to.

What was measured:
Assay type in all cases: cell-based, human
p21waf1/cip1 = assay: Immunofluorescent staining of p21; details: 30 μM LPA, 300 μM ACI, day 2 and day 4
Experimental: FIG. 3 is a set of photographs illustrating the effect of LPA and ACI on the expressions of p21 and cyclin-D1 in young and senescent cells. Particularly, a-f, g-l and m-r are photographs illustrating that sub-cultured young cells (PD 20: Y) and senescent cells (PD 65: S) were serum-starved for 48 hours respectively, followed by treatment of LPA (a-f) and ACI (g-l) singly or together (m-r), and after culturing for 1, 2, and 4 days, the cells were fixed in 4% hydrogen peroxide, and stained with p21waf1/cip1 (A) and cyclin D1 (B) antibodies, followed by confirming immunofluorescence. At this time, nucleus was stained with DAPI.
Coverslips were placed on 24 well plate on which required amounts of young and senescent cells were distributed. Media were eliminated and the treated cells were washed with PBS twice. Then, the cells were fixed with 4% hydrogen peroxide. Non-specific protein staining was blocked using PBS containing 2% BSA (blocking serum). The cells were stained with primary antibody such as anti-AMPKα, anti-p-Thr172-AMPKα, anti-p-Ser485/491-AMPKα, anti-p53, anti-p-Ser15-p53, anti-p21waf1/cip1, and anti-cyclin D1. To stain nucleus, DAPI (1:1000) was also added, followed by observation under Zeiss LSM 510 laser scanning microscope.
Cells were treated with 30 μM of LPA, 300 μM of ACI or LPA+ACI for 4 days, followed by immunofluorescence to investigate p21 and cyclin D1 expressions (FIG. 3A). As a result, when young cells were treated with ACI alone or LPA+ACI, p21 expression was increased on day 2 and day 4 (FIG. 3A).

p-Thr172-AMPKα = assay: Immuno-blotting of p-Thr172-AMPKα; details: for p-Thr172-AMPKα expression after suppressing PKA: senescent cells pre-treated with 10 mM PKA inhibitor Rp-cAMP for one hour; for Thr172-AMPKα phosphorylation: 30 μM LPA, 300 μM ACI, 10 mM AMPKI, 10 mM AICAR, up to day 4
Experimental: (A) and (B): Young and senescent cells were serum-starved for 2 days, followed by treatment with 10 mM of AMPK inhibitor […]) or 10 mM of AMPK activator AICAR(B) for 4 days. Proteins were extracted from the treated cells and the levels of AMPKα and p-Thr172-AMPKα, total p53, p-Ser15-p53 and […] measured by immuno-blotting. (C) and (D): Young cells (C) and senescent cells (D) were treated with 10 mM AMPKI or 10 mM AICAR and cultured for 4 days, followed by measurement of cell proliferation by cell counting. At this time, the experiment was repeated three times (p<0.001). (A) and (B) are photographs illustrating the results of immuno-blotting. Precisely, sub-cultured young cells (PD 18: A) and senescent cells (PD 64: B) were treated with 30 μM of LPA […] and ACI singly or together, followed by further culture for 1, 2, and 4 days. Proteins were extracted from the cultured cells and the levels of AMPKα, […] β-actin were quantified by immuno-blotting. (A) and (B) are photographs illustrating the results of immuno-blotting. Precisely, senescent cells (PD 64) were pre-treated with 10 mM of PKA inhibitor Rp-cAMP for one hour, followed by treatment with LPA(A) or ACI(B). After culturing the cells for 1, 2, and 4 days, proteins were extracted from the cultured cells and the levels of AMPKα, […] β-actin were quantified by immuno-blotting using 45 μg of the protein. To analyse protein expression, human fibroblasts were lysed in cold lysis buffer (25 mM Hepes, pH 8.0, 150 mM NaCl, 1 mM EDTA, 1 mM Na3VO4, 1 mM NaF, 1% Triton X-100 and protease inhibitors), followed by centrifugation at 4° C. at 9,000 rpm for 10 minutes to obtain supernatant. Protein in the extract was quantified […]. SDS-PAGE electrophoresis was performed with equal amount of the protein (45 μg) to separate. The separated protein was transferred onto NC membrane from the electrophoresis gel. Non-specific protein binding was blocked by blocking the blot (transferred NC membrane) using TTBS […] containing 5% skim milk for one hour. Then, antigen-antibody reaction was induced with diluted primary antibody at 4° C. for overnight. The blot was washed with TTBS, followed by reaction with horseradish peroxidase conjugated anti-IgGs diluted in TTBS containing 5% skim milk (1:5000) at room temperature for one hour. The blot was washed again with TTBS to eliminate non-specific binding of antigen-antibody. Photographs were developed/printed on X-ray film (Kodak) using ECL kit (Pierce) containing peroxidase substrate to identify each protein.

[1] = tested on: fibroblasts (young and senescent cells); assay: Soft agar assay (colony formation); details: 30 μM LPA, 300 μM ACI, three weeks
Experimental: Young and senescent cells were distributed in DMEM containing 10% bovine serum and 0.3% top agar, which were loaded on 0.6% basic agar layer in 60 mm culture dish. The cells treated with 30 μM LPA (L), 300 μM ACI (A), or both LPA and ACI for three weeks were fixed with 70% ethanol, and so was the control treated with nothing. After staining the cells with trypan blue, colonies were counted under microscope. HeLa and HepG2 cancer cell lines were distributed on soft agar dish, as positive controls, followed by treatment with LPA, ACI, or LPA+ACI. Colony formation was also analysed. The number of colonies formed in soft agar dish was plotted as mean+/− standard deviation and each measurement was repeated at least three times.
LPA and ACI were treated to fibroblast and cancer cell groups, followed by soft agar assay. […] From the above results, it was confirmed that LPA and ACI induce normal cell proliferation but not cause any transformation of cells to turn them into tumor.

colony formation in soft agar (transformation) [1]: did not form any colony
Molecule: Nc1ncnc2c1ncn2C1CCCO1 (centres unmarked) [ACI, 9-(tetrahydro-2′-furyl)adenine]
p21 expression (immunofluorescence) (p21waf1/cip1; senescent cells): reduced
p21 expression (immunofluorescence) (p21waf1/cip1; young cells): increased
p-Thr172-AMPKα expression after suppressing PKA (p-Thr172-AMPKα): not changed
Thr172-AMPKα phosphorylation (p-Thr172-AMPKα; senescent cells): reduced
Thr172-AMPKα phosphorylation (p-Thr172-AMPKα; young cells): began to increase

colony formation in soft agar (transformation) [1]: did not form any colony
Molecule: lysophosphatidic acid [LPA]
p21 expression (immunofluorescence) (p21waf1/cip1; young cells): decrease
p-Thr172-AMPKα expression after suppressing PKA (p-Thr172-AMPKα): not changed at all
Thr172-AMPKα phosphorylation (p-Thr172-AMPKα; senescent cells): reduced
Thr172-AMPKα phosphorylation (p-Thr172-AMPKα; young cells): reduced
